Data on 11 compounds can be found in PubChem BioAssay (NCI).

The structures appear in SMILES notation.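 Exposure lasted 48 hours, with cells grown in 96-well plates and compounds tested at five concentrations. GI50 = concentration required for 50% inhibition of growth. TGI denotes the concentration required for complete inhibition of growth.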 A value given as a limit tells only on which side of the number the result lay.

Holding throughout (experiment): growth of human tumour cells (NCI), 48 h
The test system of experiment [1] is A549 NSCLC.
Experiment [2] has as its system HOP-62 NSCLC.
For experiment [3], the system named is KM12 colon.
The test system of experiment [4] is MALME-3M melanoma.
Experiment [5] deals with OVCAR-3 ovarian.
In experiment [6] the test system is SK-MEL-28 melanoma.
In experiment [7] the test system is SNB-19 CNS.
The test system of experiment [8] is TK-10 renal.
The subject of experiment [9] is UO-31 renal.
The subject of experiment [10] is HL-60(TB) leukemia.

On to `N=C(N)SCc1cccc(-c2nc3ccccc3c(=O)o2)c1`, for which the TGI in experiment [1], in experiment [2], in experiment [3], in experiment [4], in [5] and in [6] was over 100 µM each time. Also, the TGI in experiment [7], in experiment [8] and in experiment [9] was over 100 µM throughout.
With `Cc1ccc(C2(O)CC(c3ccc([N+](=O)[O-])o3)=NN2C(=O)COc2ccc(Cl)cc2)cc1` (stereo not drawn), the TGI in experiment [1] stood at 56.4 µM; in experiment [2], 18.2 µM; in [3], 31.4 µM; in experiment [4], 27.1 µM; in experiment [5], 51.7 µM; in experiment [6], 22.4 µM. The TGI in experiment [7] is 67.3 µM; in experiment [8], 38.4 µM; in [9] it was 16.2 µM.
For `C[C@]12CC[C@@H]3c4ccc(O)cc4CC[C@H]3[C@@H]1CC[C@@H]2NS(=O)(=O)c1cccc(F)c1`, the GI50 in [1] is 3.13 µM; in experiment [2], 7.38 µM; in experiment [3], 2.34 µM; in experiment [4] it was 2.52 µM; in experiment [6] it was 4.81 µM; in [7], 5.5 µM. The GI50 was 4.14 µM in [8] and 2.04 µM in [9]. In addition, the TGI in experiment [1] amounted to 12.6 µM; in experiment [2], 21.9 µM; in experiment [3], 6.31 µM; in [4], 7.76 µM; in [6], 17.8 µM; in [7], 18.3 µM. Further, the TGI in experiment [8] is 13.8 µM; in experiment [9], 10.3 µM.
Consider `Cc1cc(S(=O)(=O)N/N=C(\Sc2cc(Cl)c(C)cc2S(N)(=O)=O)c2ccc(Cl)cc2)c(Cl)cc1Cl`, for which the GI50 in [1] was 36.6 µM; in [10] it was 76.4 µM; in experiment [2] it was over 100 µM; in experiment [3] it was over 100 µM; in experiment [5], 31.1 µM; in experiment [6] it was over 100 µM. Also, the GI50 was over 100 µM in [7], over 100 µM in experiment [8] and 57.1 µM in experiment [9]. For the same compound, the TGI in experiment [1], in experiment [10], in experiment [2], in experiment [3], in experiment [5] and in [6] was over 100 µM in each case. In addition, the TGI in experiment [7], in experiment [8] and in experiment [9] was over 100 µM in each case.
Regarding `O=C(Nc1ccc(-c2ccccc2)cc1)C1CCN(S(=O)(=O)c2ccccc2Cl)CC1`, the GI50 is 29.5 µM in [1]; over 100 µM in [10]; 18.8 µM in experiment [2]; 36.7 µM in experiment [3]; 41.9 µM in experiment [5]; over 100 µM in experiment [6]. The GI50 in experiment [7] was over 100 µM; in experiment [8] it was 20.6 µM; in experiment [9] it was 66.2 µM. In addition, the TGI in [1] is over 100 µM; in experiment [10] it was over 100 µM; in experiment [2], 40.9 µM; in experiment [3], over 100 µM; in [5], over 100 µM; in [6], over 100 µM. Moreover, the TGI in experiment [7] was over 100 µM; in experiment [8], 60.3 µM; in experiment [9], over 100 µM.
Take `C=C1C(=O)O[C@H]2/C=C(/C)C3=CC(=O)[C@@](C)(C[C@@H](OC(=O)/C(C)=C\C)C12)O3` (stereo partly drawn): the TGI is 17.8 µM in [1]; over 100 µM in experiment [2]; 9.5 µM in [3]; 5.04 µM in [5]; 29.7 µM in experiment [7]; 1.6 µM in experiment [8]. In experiment [9], the TGI amounted to 3.56 µM. In experiment [5], the GI50 is 1.24 µM.
Take `Cc1cc(NS(=O)(=O)c2ccc(Nc3c4ccccc4nc4c(C(=O)NCCN(C)C)cccc34)cc2)no1`: the TGI in [1] is 71 µM; in [10], 0.472 µM; in experiment [2], 6.57 µM; in experiment [3] it was over 100 µM; in experiment [6], 48.8 µM; in experiment [7], 13 µM. In addition, in experiment [8], the TGI was over 100 µM.
As for `CC(=O)/C=C/c1ccc(C#Cc2ccccc2)s1`, the GI50 in experiment [1] was 15.1 µM; in experiment [2] it was 19.7 µM; in experiment [3], 6.1 µM; in [4] it was 20.5 µM; in experiment [5] it was 15.5 µM; in experiment [6], 15.5 µM. Moreover, the GI50 in experiment [7] is 12.7 µM; in [8] it was 16.8 µM; in [9], 14.3 µM. The TGI is 28.5 µM in experiment [1]; 33.8 µM in experiment [2]; 36.7 µM in experiment [3]; 40.7 µM in [4]; 29.6 µM in [5]; 28.8 µM in [6]. Besides, the TGI in experiment [7] turned out to be 25.9 µM; in experiment [8] it was 32.9 µM; in [9], 27.3 µM.
As to `O=C(Nc1ccc(Br)cc1)c1ccc(Cl)c(Cl)c1`, the GI50 in experiment [1] is 3.76 µM; in experiment [10], 2.14 µM; in experiment [2], 3.86 µM; in [3], 3.16 µM; in experiment [5] it was 2.48 µM; in [6] it was 3.93 µM. The GI50 in experiment [7] was 3.87 µM; in experiment [8], 4.78 µM; in [9], 2.31 µM. Further, the TGI in [1] was over 100 µM; in experiment [10], 7.37 µM; in experiment [2], over 52.3 µM; in experiment [3], over 100 µM; in experiment [5], 7.18 µM; in [6] it was over 100 µM. Further, the TGI in experiment [7], in experiment [8] and in experiment [9] was over 100 µM in each case.
Take `Cc1c(C2=C(Br)C(=O)N(C)C2=O)c(=O)n(C)c(=O)n1C`: the TGI was over 100 µM in experiment [1]; 41 µM in experiment [10]; over 100 µM in experiment [2]; over 100 µM in experiment [3]; over 100 µM in experiment [5]; over 100 µM in experiment [6]. In addition, the TGI was over 100 µM in experiment [7], 31.8 µM in experiment [8] and 33.3 µM in experiment [9].
As for `COc1cc2cccc(N=Cc3cccc(OC)c3OC(C)C)c2cc1OC`, the TGI in experiment [1] stood at 86.5 µM; in experiment [2], 80.3 µM; in [3], 57.2 µM; in experiment [4], 59.8 µM; in experiment [5] it was 41 µM; in [6], 66.9 µM. Further, the TGI in experiment [8] is 59 µM; in [9], over 100 µM.
